Test results published in patent publication US5348956A, “Substituted cyclopropylamino-1,3,5-triazines” (UCB S.A., priority 1991, dated 1994).

Assays:
serotonergic activity = assay: "wet dog shake" (WDS) behavior, serotonergic activity; assay type: in vivo, male Sprague-Dawley rats; conditions: counted over 30 minutes
Description: A decrease in serotonergic activity has been correlated with the occurrence of affective disorders, such as depression and anxiety. […] The test is carried out in the morning on male Sprague-Dawley rats (±180 g), divided the previous day into groups of 8 animals in residence cages. The cage used for the tests is a transparent enclosure of 12×24×30 cm in height, the floor of which is covered with a layer of sand. The compounds to be tested, dissolved either in physiological salt solution or in a citrate buffer of pH 5, are administered intraperitoneally in a different dose for each group treated. The control groups receive an intraperitoneal injection of the same vehicle (either physiological salt solution or citrate buffer). […] The mean values of the results are calculated and analyzed statistically by the Mann-Whitney method. The mean values of the number of shakes obtained for the compounds according to the invention administered intraperitoneally at the doses indicated (in mg/kg) are given in Table V below.

[1] = test system: anaphylactic release of histamine, guinea-pig lung sections; assay: inhibition of the anaphylactic release of histamine (proper effect); assay type: cell-based, Dunkin-Hartley guinea-pigs; conditions: Cavia porcellus, in vitro, read-out: Minimum inhibitory dose (MID)
[2] = test system: longitudinal muscles of the ileum contracted by histamine; assay: potentiation of the myorelaxing effect of isoprenaline on the ileum; assay type: cell-based, Dunkin-Hartley guinea-pigs; conditions: with isoprenaline 10^-7 mole/l; histamine 3.2 μmoles/l
Outline: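 Isolated ileal longitudinal muscle contracted by repeated histamine injections; test compound injected after wash, and the next histamine contraction compared with the mean of three preceding control contractions to give % inhibition. Potentiation cycle: % inhibition by compound alone at a given dose, then with isoprenaline co-injected, repeated per dose.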

[3] = multiple-trial passive avoidance: learning; assay type: in vivo, male Sprague-Dawley rats
Description: To evaluate whether a compound can promote learning, the following test is carried out. […] Rats which remain on the mat for this period have acquired the avoidance reflex and are replaced in their original cage without receiving the electric shock. […] The results obtained in the test used to evaluate learning are given in columns 3 and 4. […] The results were analyzed by the Student test.

cAMP in PMN granulocytes = assay: increase in the level of cAMP in PMN granulocytes; assay type: cell-based, Rat; conditions: […]10^-6 mole per liter; PGE1 10^-6 mole/liter; control 4.3
Description: Polymorphonuclear neutrophil granulocytes (PMN) are cells which are mobilized during inflammatory phenomena and which can be stimulated by various compounds, such as, for example, formylmethionyl-leucylphenylalanine (FMLP) or prostaglandins E (PGE1). The PMN granulocytes respond to these extracellular stimuli with an activation of the oxygen metabolism with release of toxic oxygenated metabolites. An excessive response of the PMN granulocytes may be the cause of a painful inflammation and is also accompanied by a reduction in the level of cyclic adenosine monophosphate (cAMP) in these granulocytes. […] The reaction is then stopped by addition of 1 ml of propanol. After centrifugation at 15,000 g for 3 minutes, the supernatant is recovered and evaporated and the amount of cAMP in the residue is determined by radioimmunological assay according to the process recommended by the supplier of the reagent used for this purpose (Amersham). A control test is carried out under the same conditions, but in the absence of the compound to be tested.

CCc1nc(NC2CC2)nc(N2CCOCC2)n1 [Compound 2]
Average number of shakes (serotonergic activity; 1.0 mg/kg i.p.): 10.0 ± 3.5 shakes
minimal effective concentration [1]: 1 µM
Minimum potentiating dose (MPD) [2]: 1.0 µmol/L
Learning, average number of trials, group 2 ([3]; 1.0 mg/kg i.p.): 2.7 trials

CCCc1nc(NC2CC2)nc(N2CC3CCC(C2)O3)n1 [Compound 11]
Average number of shakes (serotonergic activity; 1.1 mg/kg i.p.): 4.3 ± 1.4 shakes
Amount of cAMP produced (cAMP in PMN granulocytes): 16.2 picomoles per 10^7 cells
minimal effective concentration [1]: 1 µM
Minimum potentiating dose (MPD) [2]: 0.032 µmol/L
Learning, average number of trials, group 2 ([3]; 3.3 mg/kg i.p.): 1.8 trials

CC(C)c1nc(NC2CC2)nc(N2CC3CCC(C2)O3)n1 [Compound 12]
Amount of cAMP produced (cAMP in PMN granulocytes): 16.8 picomoles per 10^7 cells
minimal effective concentration [1]: 0.1 µM
Minimum potentiating dose (MPD) [2]: 0.01 µmol/L
Learning, average number of trials, group 2 ([3]; 1.0 mg/kg i.p.): 1.7 trials

CCCc1nc(NC2CC2)nc(N(CCO)CCO)n1 [Compound 6]
Average number of shakes (serotonergic activity; 1.0 mg/kg i.p.): 1.9 ± 0.5 shakes
Amount of cAMP produced (cAMP in PMN granulocytes): 14.6 picomoles per 10^7 cells
minimal effective concentration [1]: 1 µM
Minimum potentiating dose (MPD) [2]: 1.0 µmol/L

C1CC(c2nc(NC3CC3)nc(N3CCOCC3)n2)C1 [Compound 4, 2-cyclobutyl-4-cyclopropylamino-6-morpholino-1,3,5-triazine]
Average number of shakes (serotonergic activity; 2.8 mg/kg i.p.): 10.6 ± 4.3 shakes
Amount of cAMP produced (cAMP in PMN granulocytes): 17.7 picomoles per 10^7 cells
minimal effective concentration [1]: 0.32 µM
Minimum potentiating dose (MPD) [2]: 0.032 µmol/L
Learning, average number of trials, group 2 ([3]; 2.8 mg/kg i.p.): 1.9 trials

COC1CN(c2nc(NC3CC3)nc(C3CC3)n2)C1 [Compound 14]
Average number of shakes (serotonergic activity; 0.8 mg/kg i.p.): 2.1 ± 0.7 shakes
minimal effective concentration [1]: 1 µM
Minimum potentiating dose (MPD) [2]: 1.0 µmol/L
Learning, average number of trials, group 2 ([3]; 2.6 mg/kg i.p.): 1.5 trials

C1CN(c2nc(NC3CC3)nc(C3CC3)n2)CCO1.Cl [Compound 3, 2-cyclopropyl-4-cyclopropylamino-6-morpholino-1,3,5-triazine hydrochloride]
Average number of shakes (serotonergic activity; 0.3 mg/kg i.p.): 5.1 ± 1.0 shakes
Average number of shakes (serotonergic activity; 1.0 mg/kg i.p.): 11.9 ± 2.7 shakes
Amount of cAMP produced (cAMP in PMN granulocytes): 23.2 picomoles per 10^7 cells
minimal effective concentration [1]: 0.032 µM
Minimum potentiating dose (MPD) [2]: 0.032 µmol/L
Learning, average number of trials, group 2 ([3]; 1.0 mg/kg i.p.): 1.9 trials

OCCN(CCO)c1nc(NC2CC2)nc(C2CC2)n1 [Compound 7]
Average number of shakes (serotonergic activity; 2.8 mg/kg i.p.): 7.9 ± 1.8 shakes
Amount of cAMP produced (cAMP in PMN granulocytes): 15.8 picomoles per 10^7 cells
minimal effective concentration [1]: 0.32 µM
Minimum potentiating dose (MPD) [2]: 0.32 µmol/L
Learning, average number of trials, group 2 ([3]; 2.8 mg/kg i.p.): 1.9 trials

CCCc1nc(NC2CC2)nc(N2CCOCC2)n1 [Compound 1, 2-Cyclopropylamino-4-morpholino-6-n-propyl-1,3,5-triazine]
Average number of shakes (serotonergic activity; 1.0 mg/kg i.p.): 7.8 ± 1.6 shakes
Amount of cAMP produced (cAMP in PMN granulocytes): 21.0 picomoles per 10^7 cells
minimal effective concentration [1]: 0.1 µM
Minimum potentiating dose (MPD) [2]: 0.032 µmol/L
Learning, average number of trials, group 2 ([3]; 3.0 mg/kg i.p.): 1.4 trials

C1CC1Nc1nc(C2CC2)nc(N2CC3CCC(C2)O3)n1 [Compound 16]
Average number of shakes (serotonergic activity; 1.0 mg/kg i.p.): 10.6 ± 1.8 shakes
minimal effective concentration [1]: 0.1 µM
Minimum potentiating dose (MPD) [2]: 0.032 µmol/L
Learning, average number of trials, group 2 ([3]; 3.25 mg/kg i.p.): 2.2 trials

OC1CN(c2nc(NC3CC3)nc(C3CC3)n2)C1 [Compound 13]
Average number of shakes (serotonergic activity; 2.5 mg/kg i.p.): 5.6 ± 1.8 shakes
minimal effective concentration [1]: 1 µM
Minimum potentiating dose (MPD) [2]: 1.0 µmol/L
Learning, average number of trials, group 2 ([3]; 2.5 mg/kg i.p.): 2.1 trials

CCCc1nc(NC2CC2)nc(N2CCC(O)CC2)n1 [Compound 5]
Average number of shakes (serotonergic activity; 2.8 mg/kg i.p.): 8.4 ± 1.6 shakes
Amount of cAMP produced (cAMP in PMN granulocytes): 11.6 picomoles per 10^7 cells
minimal effective concentration [1]: 0.32 µM
Minimum potentiating dose (MPD) [2]: 1.0 µmol/L
Learning, average number of trials, group 2 ([3]; 2.8 mg/kg i.p.): 2.3 trials
